From patent US9187726B2, “Culturing a microorganism in a medium with an elevated level of a carboxylate counterion source” (ExxonMobil Research and Engineering Company, priority 2010, dated 2015)

Tests used:
[1] = system: SGI-004 Synechococcus strain; assay: Tolerance to free fatty acids in media with increased calcium and magnesium; assay type: cell-based; conditions: for effect on free fatty acid tolerance / viability: added to 2X and 4X of standard BG-11
Protocol: (§1) The Synechocystis sp. PCC 6803 strain and the SGI-004 Synechococcus strain were both tested to see if calcium and/or magnesium could alleviate the toxic effects of free fatty acid in the media. BG-11 media was used to culture the cells in multiwall plates. Calcium (CaCl2) and magnesium (MgCl2) were added alone and in combination to achieve a concentration two-fold (2×) and four-fold (4×) that of standard BG-11 media. […] PCC 6803. (Table 3). […] At a concentration double that of the BG-11 recipe (approximately 0.5 mM), calcium added a tolerance of up to about 100 mg/L more of free fatty acid for both of the strains.

[2] = system: Synechocystis sp. PCC 6803; assay: as above; assay type: cell-based; conditions: for effect on free fatty acid tolerance: added to 2X and 4X of standard BG-11
Protocol: as §1

[3] = system: Synechocystis sp. PCC 6803; assay: Growth in calcium-enhanced media up to about one hundred times BG-11 calcium; assay type: cell-based; conditions: calcium up to about one hundred times standard BG-11 (up to ~25 mM)
Protocol: For large-scale production of fatty acids, calcium (and/or magnesium) supplementation would allow for fatty acids to accumulate during a production phase to be harvested one or more times in a non-continuous mode. Calcium concentrations up to about one hundred times the concentration of calcium in standard BG-11 medium (that is, up to ˜25 mM) have been tested on Synechocystis sp.

[4] = system: PH-SGI-E-0159; assay: Long-term effect of calcium addition on fatty acid-producing strain, one copy Cc1FatB1; assay type: cell-based, Synechocystis sp. PCC 6803; conditions: with or without extra calcium addition
From the text: (§2) FIG. 2 provides data on the growth of genetically modified cyanobacterial strains producing free fatty acids in calcium-supplemented media. FIG. 2a is a graph showing the post-IPTG induction growth of cultures (as measure by OD at 730 nm) of Synechocystis PCC 6803 transformed with one (PH-SGI-E-0159-1; “159”) or three (PH-SGI-E-0166-1; “166”) copies of the Cc1FatB1 Cuphea carthagenensis acyl-ACP thioesterase (diamonds, strain 159 in standard BG-11 media; squares, strain 159 in standard BG-11 media supplemented to 10-fold the amount of calcium of BG-11 (˜2.5 mM); triangles, cyanobacterial strain 166 in standard BG-11 media; circles, strain 166 in standard BG-11 media supplemented to 10-fold the amount of calcium of BG-11 (˜2.5 mM)). FIG. 2b is a graph showing the post-IPTG induction free fatty acid production in mg/L of cultures of Synechocystis strains transformed with one (PH-SGI-E-0159-1; “159”) or three (PH-SGI-E-0166-1; “166”) copies of the Cc1FatB1 Cuphea carthagenensis acyl-ACP thioesterase (diamonds, strain 159 in standard BG-11 media; squares, strain 159 in standard BG-11 media supplemented to 10-fold the amount of calcium of BG-11 (˜2.5 mM); triangles, cyanobacterial strain 166 in standard BG-11 media; circles, strain 166 in standard BG-11 media supplemented to 10-fold the amount of calcium of BG-11 (˜2.5 mM)). […]

[5] = system: PH-SGI-E-0166; assay: Long-term effect of calcium addition on fatty acid-producing strain, three copies Cc1FatB1; assay type: cell-based, Synechocystis sp. PCC 6803; conditions: ~10× calcium concentration; culture without extra calcium completely bleached after ~12 days of IPTG induction
From the text: as §2

[6] = calcium at double the BG-11 recipe (approximately 0.5 mM)

[Ca+2].[Cl-].[Cl-] [calcium, calcium chloride]
effect on free fatty acid tolerance / viability [1]: increased free fatty acid tolerance | added tolerance, more free fatty acid tolerated [1, 6]: up to 100 mg/L | effect on free fatty acid tolerance [2]: increased free fatty tolerance | added tolerance, more free fatty acid tolerated [2, 6]: up to 100 mg/L | growth defects in calcium-enhanced media [3]: no growth defects | time cultures continued to grow and stayed green [4]: at least 31 days | culture survival [5]: survived

[Cl-].[Cl-].[Mg+2] [magnesium, MgCl2]
effect on free fatty acid tolerance / viability [1]: no discernible protective effect | effect on free fatty acid tolerance [2]: increased free fatty tolerance
